Results reported in patent US10189795B2, “Aryl amine substituted quinoxaline used as anticancer drugs” (priority 2014, dated 2019).

Legend:
SW900 = assay: cell viability of SW900 cells, 1 and 10 uM; format: cell-based; conditions: Homo sapiens
PP2A = PP2A phosphatase activity (malachite green-phosphate assay in cell lysate); format: cell-based
Protocol: The protein phosphatase activity in each cell lysate was determined by measuring the generation of free phosphate from threonine phosphopeptide using the malachite green-phosphate complex assay as described by the manufacturer (Upstate Biotechnology, Lake Placid, N.Y., USA). In brief, HCC cell lysates were first prepared in a low-detergent lysis buffer. […] After incubation for 10 min at 30° C., the malachite dye was added and free phosphate was measured by optical density at 650 nm. In order to avoid variation resulting from differences in the amount of immunoprecipitation protein between samples, the phosphatase activities were normalized to the amounts of PP2A immunoprecipitated, which were detected and quantified by immunoblot analysis for each treatment group.

PLC5 = assay: MTT cell viability, PLC5; format: cell-based; conditions: 48 h
Protocol: The Sk-Hep1, PLC/PRF/5 (PLC) and Hep3B cell lines were obtained from American Type Culture Collection (ATCC; Manassas, Va., USA). The Huh-7 HCC cell line was obtained from the Health Science Research Resources Bank (HSRRB; Osaka, Japan; JCRB0403). Cells were maintained in DMEM supplemented with 10% FBS in a 37° C. humidified incubator in an atmosphere of 5% CO^2 in air. Other cell lines, including non-small cell lung cancer cells e.g. H358, H460 and A549 and human squamous cell carcinoma cells e.g. NCI-1703, H2170, H520, SW900 and NCI—H226 all obtained from American Type Culture Collection (Manassas, Va.) were also provided for the assays describes below.
The present invention compared the antitumor activities of an erlotinib derivative of the present invention, TD-52, and erlotinib on HCC cells. The present invention used MTT assay to evaluate cell viability after exposure to TD-52 or erlotinib for 48 h. […] To further evaluate the cell apoptosis induced by the treatments, all four cell lines were treated with TD-52 and erlotinib at the indicated concentration for 24 h and the percentages of sub-G1 cells were determined by flow cytometry (FIG. 1B).

H2170 = assay: cell viability of H2170 cells, 1 and 10 uM; format: cell-based; conditions: Homo sapiens, NCI-H2170
H358 = assay: cell viability of H358 cells, 1 and 10 uM; format: cell-based; conditions: Homo sapiens, NCI-H358
[1] = system: HCC cells (HA22T, Hep3B, PLC5, Sk-Hep1); assay: annexin-V/PI double-staining assay of apoptotic and necrotic cell death; format: cell-based; conditions: 2 μM or higher doses, 48 h, four HCC cell lines
Protocol: The numbers of apoptotic cells after treatment with DMSO, sorafenib or the erlotinib derivatives of the present invention were assessed by flow cytometry (sub-G1). Annexin-V/propidium iodidie (PI) double-staining assay was used to determine numbers of both apoptotic and necrotic cells. For above tow assays, HCC cells were harvested after the erlotinib derivatives of the present invention treatment and incubated with PI alone for sub-G1 assay and in combination with annexin-V—FITC. Analysis of cell composition was performed by flow cytometry. The erlotinib derivatives of the present invention-induced apoptotic cell death was assessed by western blot analysis of activated caspases and cleaved PARP, and cell death enzyme-linked immunosorbent assay (ELISA) for cytoplasmic histone-associated DNA fragments (Roche, Indianapolis, Ind., USA). The effect of co-treatment with the erlotinib derivatives of the present invention and z-VAD-fmk, the caspase inhibitor, were assessed by western blot analysis and flow cytometry.
To better characterize the antitumor properties of TD-52, annexin-V/propidium iodide (PI) double-staining assay, western blot analysis, cell cycle analysis and DNA fragmentation assay were performed (FIGS. 1C-1E). At dose increase, the proportion of apoptosis and necrosis of cancer cell ware analyzed by annexin-V—FITC/PI double-staining assay. […]

SET-PP2Ac binding = target: T1, SET-PP2Ac binding (Homo sapiens, UniProt Q01105); assay: disruption of SET-PP2Ac binding (surface plasmon resonance, co-IP)
T1 construct: His; purchased Genway (SET-His); Abnova (PP2Ac-GST) GWB-ATG319; H00005515
T1 sequence (Q01105 1-277 isoform Q01105-2): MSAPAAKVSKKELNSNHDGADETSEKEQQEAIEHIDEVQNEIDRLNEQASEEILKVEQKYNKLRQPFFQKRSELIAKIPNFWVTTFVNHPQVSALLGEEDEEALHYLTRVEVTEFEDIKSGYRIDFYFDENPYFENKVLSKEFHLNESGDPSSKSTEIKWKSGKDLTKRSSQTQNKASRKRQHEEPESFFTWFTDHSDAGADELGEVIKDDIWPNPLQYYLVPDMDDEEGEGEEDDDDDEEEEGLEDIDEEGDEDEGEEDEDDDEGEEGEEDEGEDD
Protocol: Binding affinities of full-length SET and truncated SET to PP2Ac and the effect of the erlotinib derivatives of the present invention on disrupting SET and PP2Ac were analyzed. PP2Ac-GST recombinant protein was bound in the CMS chip pre-coated with GST-capture antibodies. Sensorgrams were generated by injecting several concentrations of the erlotinib derivatives of the present invention mixed with fixed-concentration of SET recombinant protein, or the mixture of different concentration of truncated SET proteins in a fixed-dose EMQA. PP2Ac-GST recombinant protein used for this experiment was purchased from Abnova (H00005515) and SET-His recombinant protein was obtained from Genway (GWB-ATG319).
EMQA reactivates PP2A by disrupting the binding of SET-PP2Ac. To validate the role of SET, the present invention generated Hep3B cells with ectopic expression of myc-tagged SET by transient transfection. […] With a fixed amount of PP2Ac coated on the CM chip, the present invention tested the effects of a fixed-dose of EMQA on interfering different proportions of full-length and truncated forms of SET proteins in SPR system. […] To validate the findings of this ex vivo system, the present invention generated cells with ectopic overexpression of these two truncated forms of Flag-tagged SET proteins by transient transfections.

SMILES: C#Cc1cccc(Nc2nc3ccccc3nc2Nc2cccc(C#C)c2)c1 [TD52, N^2,N^3-bis(3-ethynylphenyl)quinoxaline-2,3-diamine]
- viability at 1 µM (SW900; 1 uM): 107 ± 13.1%
- viability at 10 µM (SW900; 10 uM): 77.9 ± 11.3%
- minimal concentration for PP2A activation (PP2A): 100 to 200 nM
- PP2A activity in HCC cells (PP2A; 1 μL (printed) TD-52, 24 hr): enhanced
- IC50 (PLC5): 0.8 µM
- viability at 1 µM (H2170; 1 uM): 100 ± 3.21%
- viability at 10 µM (H2170; 10 uM): 7.84 ± 9.49%
- viability at 1 µM (H358; 1 uM): 99.8 ± 3.8%
- viability at 10 µM (H358; 10 uM): 11.2 ± 0.7%
- extents of cancer cell death, included apoptotic and necrotic death [1]: ≥ 50%
- minimal concentration to disrupt SET-PP2Ac binding (SET-PP2Ac binding): 100 to 200 nM
